Legend:
[1] = Pharmacokinetics of PEGylated protease inhibitor prodrugs in rats; type: in vivo, male Sprague-Dawley rats; set-up: AUCall / AUC: concentration or dose not given beside the values; conditions: prodrug in plasma; for AUCall / Cmax: mean ± SD
Experimental: Pharmacokinetic analysis of protease inhibitors described herein was conducted. To evaluate the pharmacokinetics of PEGylated protease inhibitor conjugates with releasable lipophilic attachments, test compounds were administered to male Sprague-Dawley rats.
At various times following test article administration, serial blood samples were collected from indwelling jugular vein catheters and transferred to micro-tubes containing 7.5 μL of 20% w/v K2EDTA as an anticoagulant. Following processing of the blood samples to plasma (10 minutes at 10000 rpm, Centrifuge Model: Kubota 3500), plasma concentrations of the test article or corresponding PEGylated molecule released from the test article was measured using LC-MS/MS methods. Pharmacokinetic parameters were estimated using noncompartmental methods.
Table 3 presents a summary of pharmacokinetic parameters of PEGylated protease inhibitor prodrugs, wherein Cmax is the maximum (peak) concentration, AUCall represents the area under the concentration-time curve from zero to time of last concentration value, T½ is half life, and MRTlast is the mean residence time to last observable concentration

[2] = Pharmacokinetics of released PEGylated protease inhibitor following P.O. administration of prodrugs in rats; type: in vivo, male Sprague-Dawley rats; set-up: AUCall Mean: concentration or dose not given beside the values; C24 Mean: unit not given here; conditions: rats (n = 4-5)
Outline: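 Prodrugs given orally to male Sprague-Dawley rats, with serial blood via jugular catheter into K2EDTA. Plasma levels of test article or released PEGylated inhibitor measured by LC-MS/MS. PK parameters from noncompartmental analysis.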

[3] = mPEG5-atazanavir in plasma after PO administration of mPEG5-ATV or of the listed prodrug
[4] = mPEG6-atazanavir in plasma after PO administration of mPEG6-ATV or of the listed prodrug
[5] = mPEG3-atazanavir in plasma after PO administration of mPEG3-ATV or of the listed prodrug

| Structure (SMILES) | MRTlast [1] | AUCall [1] | Cmax [1] | AUCall Mean [2, 3] | Cmax Mean [2, 3] | MRT last Mean [2, 3] | Tmax Median [2, 3] | AUCall Mean [2, 4] | Cmax Mean [2, 4] | MRT last Mean [2, 4] | Tmax Median [2, 4] | AUCall Mean [2, 5] | Cmax Mean [2, 5] | MRT last Mean [2, 5] | Tmax* Median [2, 5] | t½(z) [1] | Cmin(24 hr) [1] | C24 Mean ([2]; concentration at 24 hours, mPEG3-atazanavir in plasma after PO administration of mPEG3-ATV or of the listed prodrug) |
| --- | --- | --- | --- | --- | --- | --- | --- | --- | --- | --- | --- | --- | --- | --- | --- | --- | --- | --- |
| COCCOCCOCCOCCOCCOC(=O)NC(C(=O)NC(Cc1ccccc1)C(CN(Cc1ccc(-c2ccccn2)cc1)NC(=O)C(NC(=O)OC)C(C)(C)C)OC(=O)COCCOC(=O)C(N)CC(C)C)C(C)(C)C.Cl (stereo not shown) [mPEG5-Atazanavir-CME-Leucine HCl, mPEG5-Atazanavir-CME-Leucine] | 0.250 ± 0.000 h | 0.119 ± 0.0826 ng·h/mL | 0.45 ± 0.330 ng/mL | 65.6 ng·h/mL | 2.88 ng/mL | 16.5 h | 9.00 h |  |  |  |  |  |  |  |  |  |  |  |
| COCCOCCOCCOCCOCCOCCOC(=O)NC(C(=O)NC(Cc1ccccc1)C(CN(Cc1ccc(-c2ccccn2)cc1)NC(=O)C(NC(=O)OC)C(C)(C)C)OC(=O)COCCOC(=O)C(N)CC(C)C)C(C)(C)C.Cl (stereo not shown) [mPEG6-Atazanavir-CME-Leucine HCl, mPEG6-Atazanavir-CME-Leucine] | 2.24 ± 2.58 h | 2.56 ± 2.89 ng·h/mL | 0.851 ± 0.730 ng/mL |  |  |  |  | 287 ng·h/mL | 8.65 ng/mL | 21.8 h | 1.50 h |  |  |  |  |  |  |  |
| COCCOCCOCCOC(=O)NC(C(=O)NC(Cc1ccccc1)C(CN(Cc1ccc(-c2ccccn2)cc1)NC(=O)C(NC(=O)OC)C(C)(C)C)OC(=O)COCCOC(=O)C(Cc1ccccc1)NC(=O)C(N)Cc1ccccc1)C(C)(C)C.Cl (stereo not shown) [mPEG3-atazanavir-CME-phe-phenylalanine, mPEG3-Atazanavir-CME-PhePhenylalanine] | 0.696 ± 0.381 h | 0.919 ± 0.968 ng·h/mL | 0.772 ± 0.253 ng/mL |  |  |  |  |  |  |  |  | 120 ng·h/mL | 6.26 ng/mL | 16.2 h | 1.25 h |  |  |  |
| CCOC(=O)OC(CN(Cc1ccc(-c2ccccn2)cc1)NC(=O)C(NC(=O)OC)C(C)(C)C)C(Cc1ccccc1)NC(=O)C(NC(=O)OCCOCCOCCOC)C(C)(C)C (stereo not shown) [mPEG3-atazanavir ethyl carbonate, mPEG3-Atazanavir Ethyl Carbonate] | 3.12 ± 0.285 h | 4960 ± 442 ng·h/mL | 1190 ± 294 ng/mL |  |  |  |  |  |  |  |  | 199 ng·h/mL | 17.9 ng/mL | 15.5 h | 1.00 h | 6.56 ± 5.13 h | 2.42 ± 1.20 ng/mL | 1.42 |
| COCCOCCOCCOCCOCCOC(=O)NC(C(=O)NC(Cc1ccccc1)C(CN(Cc1ccc(-c2ccccn2)cc1)NC(=O)C(NC(=O)OC)C(C)(C)C)OC(=O)COCCOC(=O)C(Cc1ccccc1)NC(=O)C(N)Cc1ccccc1)C(C)(C)C.Cl (stereo not drawn) [CME Phe-Phe-mPEG5-Atazanavir HCl, mPEG5-atazanavir-ethoxy-CME-Phe-Phe] | 1.26 h | 1.22 ng·h/mL | 2.36 ng/mL | 299 ng·h/mL |  | 23.9 h | 24.0 h |  |  |  |  |  |  |  |  |  | BLQ |  |
| COCCOCCOCCOCCOCCOCCOC(=O)NC(C(=O)NC(Cc1ccccc1)C(CN(Cc1ccc(-c2ccccn2)cc1)NC(=O)C(NC(=O)OC)C(C)(C)C)OCOC)C(C)(C)C (stereo not shown) [mPEG6-Atazanavir-methyl methyl ether, mPEG6-Atazanavir Methyl Methyl Ether] | 5.12 ± 1.74 h | 1140 ± 312 ng·h/mL | 222 ± 73 ng/mL |  |  |  |  | 55.8 ng·h/mL | 11.3 ng/mL | 3.11 h | 1.50 h |  |  |  |  | 11.2 ± 7.72 h | 3.47 ± 2.81 ng/mL |  |
| COCCOCCOCCOC(=O)NC(C(=O)NC(Cc1ccccc1)C(CN(Cc1ccc(-c2ccccn2)cc1)NC(=O)C(NC(=O)OC)C(C)(C)C)OC(=O)COCCOC(=O)C(N)CC(C)C)C(C)(C)C.Cl (stereo not shown) [mPEG3-Atazanavir-CME-Leucine HCl, mPEG3-Atazanavir-CME-Leucine] | 3.74 ± 6.09 h | 13.1 ± 17.2 ng·h/mL | 11.5 ± 12.8 ng/mL |  |  |  |  |  |  |  |  | 85.9 ng·h/mL | 4.39 ng/mL | 17.4 h | 9.00 h |  |  |  |
| COCCOCCOCCOCCOCCOC(=O)NC(C(=O)NC(Cc1ccccc1)C(CN(Cc1ccc(-c2ccccn2)cc1)NC(=O)C(NC(=O)OC)C(C)(C)C)OCOC)C(C)(C)C (stereo not shown) [mPEG5-Atazanavir-methyl methyl ether, mPEG5-Atazanavir Methyl Methyl Ether] | 3.93 ± 1.41 h | 3530 ± 1960 ng·h/mL | 773 ± 481 ng/mL | 137 ng·h/mL | 23.3 ng/mL | 4.76 h | 2.00 h |  |  |  |  |  |  |  |  | 4.54 ± 1.68 h | 6.61 ± 8.39 ng/mL |  |
| CCOC(C)OC(CN(Cc1ccc(-c2ccccn2)cc1)NC(=O)C(NC(=O)OC)C(C)(C)C)C(Cc1ccccc1)NC(=O)C(NC(=O)OCCOCCOCCOCCOCCOCCOC)C(C)(C)C (mixture of isomers) [1-ethoxyethoxy-mPEG6-Atazanivir, ethoxy ethoxy mPEG6-atazanavir] | 2.17 ± 0.340 h | 2200 ± 2000 ng·h/mL | 630 ± 550 ng/mL |  |  |  |  | 137 ng·h/mL | 28.8 ng/mL | 4.33 h | 1.50 h |  |  |  |  | 2.45 ± 0.630 h | 0.354 ± 0.410 ng/mL |  |
| COCCOCCOCCOC(=O)NC(C(=O)NC(Cc1ccccc1)C(CN(Cc1ccc(-c2ccccn2)cc1)NC(=O)C(NC(=O)OC)C(C)(C)C)OC(=O)COCCOC(=O)C(N)Cc1ccccc1)C(C)(C)C.Cl (stereo not shown) [mPEG3-Atazanavir-CME-phenylalanine HCl, mPEG3-atazanavir-CME-phenylalanine] | 2.36 ± 3.57 h | 10.2 ± 8.7 ng·h/mL | 7.98 ± 6.06 ng/mL |  |  |  |  |  |  |  |  | 99.5 ng·h/mL | 4.48 ng/mL | 18.5 h | 6.00 h |  |  |  |

Reference: patent US20120108501A1, “Protease Inhibitors” (priority 2009, published 2012)
